Assay results from patent US8507562B2, “Synthesis of (1)-beta-elemene, (-)-beta-elemenal, (-)-beta-elemenol, (-)-beta-elemene fluoride and their analogues, intermediates, and composition and uses thereof” (HYWE Pharmaceuticals, Inc., priority 2004, dated 2013).
Converted amounts (≈) assume the structure as drawn. Like-named read-outs stand apart in the source and are kept apart here. One block for each molecule: values may come before it.

Assays:
H-460 lung cancer = assay: MTT survival assay; format: cell-based, human
Solubility comparison = format: physicochemical
A549 lung cancer = assay: MTT survival assay; conditions: 2 × 10^4 cells/ml
A-172 brain tumor = assay: MTT survival assay; format: cell-based, human; conditions: read-out: Cisplatin IC50; A-172; combination: Elemene at IC20 of the cell line
U-87 brain tumor = assay: MTT survival assay; format: cell-based, human; conditions: read-out: Cisplatin IC50; U-87; combination: Elemene at IC20 of the cell line
H-69 lung cancer = assay: MTT survival assay; format: cell-based, human; conditions: read-out: Cisplatin IC50, combination: Elemene at IC20 of the cell line
MCAS ovarian cancer = assay: MTT survival assay; format: cell-based, human; conditions: read-out: Cisplatin IC50, combination: Elemene at IC20 of the cell line
[1] = test system: CCL-2 (Hela) cervical cancer; assay: MTT survival assay; format: cell-based, human; conditions: read-out: Cisplatin IC50, combination: Elemene at IC20 of the cell line
DU-145 prostate cancer = assay: MTT survival assay; format: cell-based, human; conditions: read-out: Cisplatin IC50, combination: Elemene at IC20 of the cell line
PC-3 prostate cancer = assay: MTT survival assay; format: cell-based, human; conditions: read-out: Cisplatin IC50, combination: Elemene at IC20 of the cell line
[2] = test system: Colon Cancer Cells HCT-116; assay: MTS cell viability assay; format: cell-based, human; conditions: combinations with Elemene 160 μg/ml, n = 8
[3] = test system: Colon Cancer Cells Caco-2; assay: MTS cell viability assay; format: cell-based, human; conditions: combinations with Elemene 100 μg/ml, n = 8
[4] = test system: late-stage colorectal cancer; conditions: enema twice a day for 10 days; Elemene 200 mg (17 patients), 5-FU 500 mg (14 patients); cited from earlier work
[5] = test system: Colon Cancer Cells HCT-15; assay: MTS cell viability assay; conditions: combinations with Elemene 160 μg/ml, n = 8
[6] = test system: Colon Cancer Cells Colo 205; assay: MTS cell viability assay; conditions: Colo 205, drug alone
SKOV3/CIS cells = conditions: cited from earlier work

solubility relative to (−)-beta-elemene (Solubility comparison): more soluble than (−)-beta-elemene
SMILES: C=C[C@]1(C)CC[C@@H](C(=C)CO)C[C@H]1C(=C)C [(−)-beta-elemenol, (−)-Beta-elemenol]
IC50 (H-460 lung cancer; H460, 24 h, 2 × 10^4 cells/ml): 111.0 µg/mL | IC50 (H-460 lung cancer; H460, 48 h, 2 × 10^4 cells/ml): 69.0 µg/mL | IC50 (H-460 lung cancer; H460, 72 h, 2 × 10^4 cells/ml): 74.5 µg/mL | IC50 (A549 lung cancer; A549, 24 h): 74.0 µg/mL (≈ 336 µM) | IC50 (A549 lung cancer; A549, 48 h): 60.1 µg/mL (≈ 273 µM) | IC50 (A549 lung cancer; A549, 72 h): 81.0 µg/mL (≈ 368 µM)

SMILES: N.N.[Cl][Pt][Cl] [Cisplatin]
IC50 (A-172 brain tumor): 24 µM | IC50 (U-87 brain tumor): 10 µM | IC50 (H-460 lung cancer; read-out: Cisplatin IC50, H-460, combination: Elemene at IC20 of the cell line): 80 µM | IC50 (H-69 lung cancer): 8 µM | IC50 (MCAS ovarian cancer): 38 µM | IC50 [1]: 27.5 µM | IC50 (DU-145 prostate cancer): 384 µM | IC50 (PC-3 prostate cancer): 80 µM

IC50 ([2]; HCT-116, 4 hr/24 hr × 2): 42.7 ± 4.78 µg/mL | IC50 ([2]; HCT-116, 4 hr/24 hr × 3): 22.4 ± 8.75 µg/mL | IC50 ([2]; HCT-116, 4 hr/24 hr): 85.1 ± 8.89 µg/mL | IC50 ([2]; HCT-116, 4 hr): 83.3 ± 12.1 µg/mL | IC50 ([2]; HCT-116, 8 hr): 43.1 ± 13.1 µg/mL | IC50 ([2]; HCT-116, 12 hr): 21.7 ± 3.70 µg/mL | IC50 ([2]; HCT-116, 24 hr): 11.8 ± 2.54 µg/mL | IC50 ([2]; HCT-116, 48 hr): 7.4 ± 1.82 µg/mL | IC50 ([2]; HCT-116, 72 hr): 4.5 ± 0.74 µg/mL | IC50 ([3]; Caco-2, 4 hr/24 hr × 2): 17.0 ± 3.29 µg/mL | IC50 ([3]; Caco-2, 4 hr/24 hr × 3): 13.8 ± 2.27 µg/mL | IC50 ([3]; Caco-2, 4 hr/24 hr): 28.8 ± 9.87 µg/mL | IC50 ([3]; Caco-2, 4 hr): 189 ± 27.1 µg/mL | IC50 ([3]; Caco-2, 8 hr): 102 ± 13.0 µg/mL | IC50 ([3]; Caco-2, 12 hr): 42.5 ± 9.84 µg/mL | IC50 ([3]; Caco-2, 24 hr): 23.9 ± 4.37 µg/mL | IC50 ([3]; Caco-2, 48 hr): 18.3 ± 2.83 µg/mL | IC50 ([3]; Caco-2, 72 hr): 12.6 ± 2.07 µg/mL | IC50 ([5]; HCT-15, 4 hr/24 hr × 2): 40.0 ± 7.01 µg/mL | IC50 ([5]; HCT-15, 4 hr/24 hr × 3): 28.4 ± 7.62 µg/mL | IC50 ([5]; HCT-15, 4 hr/24 hr): 80.0 ± 13.6 µg/mL | IC50 ([5]; HCT-15, 8 hr): 68.1 ± 7.63 µg/mL | IC50 ([5]; HCT-15, 12 hr): 52.1 ± 5.09 µg/mL | IC50 ([5]; HCT-15, 48 hr): 18.4 ± 4.32 µg/mL | IC50 ([5]; HCT-15, 72 hr): 7.95 ± 3.80 µg/mL | IC50 ([6]; Time 4 hr, n = 8): 117 ± 9.02 µg/mL (≈ 899 µM) | IC50 ([6]; Time 4 hr/24 hr × 2, n = 8): 26.3 ± 5.34 µg/mL (≈ 202 µM) | IC50 ([6]; Time 4 hr/24 hr × 3, n = 8): 11.6 ± 4.13 µg/mL (≈ 89.2 µM) | IC50 ([6]; Time 4 hr/24 hr, n = 8): 34.6 ± 4.76 µg/mL (≈ 266 µM) | IC50 ([6]; Time 8 hr, n = 8): 91.3 ± 5.62 µg/mL (≈ 702 µM) | IC50 ([6]; Time 12 hr, n = 8): 36.7 ± 4.66 µg/mL (≈ 282 µM) | IC50 ([6]; Time 24 hr, n = 8): 21.1 ± 6.06 µg/mL (≈ 162 µM) | IC50 ([6]; Time 48 hr, n = 8): 13.2 ± 1.44 µg/mL (≈ 101 µM) | IC50 ([6]; Time 72 hr, n = 8): 11.0 ± 1.60 µg/mL (≈ 84.6 µM)
SMILES: O=c1[nH]cc(F)c(=O)[nH]1 [Lr 5-Fu]
CR [4]: CR: 57.1% | PR [4]: PR: 21.4%

SMILES: COc1ccc(CCN(C)CCCC(C#N)(c2ccc(OC)c(OC)c2)C(C)C)cc1OC (stereo not shown) [Verapamil]
enhancement of sensitivity to doxorubicin (SKOV3/CIS cells): 260 fold
